Columns and labels:
wild oat = test: Test B postemergence herbicide test; assay type: in vivo, Avena fatua; conditions: for Oat, Wild plant response rating: postemergence
How it was run: (§1)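 Visual ratings, 0 (no effect) to 100 (complete control), made versus controls after 13–15 d greenhouse. Paddy plants treated at 2-leaf stage; postemergence plants at 1- to 4-leaf stage, 2–18 cm tall.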

rice [1] = test: Test B flooded paddy test; assay type: in vivo, Oryza sativa; conditions: 1000 g ai/ha, scale 0 to 100 (0 no effect, 100 complete control)
How it was run: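 Treated at 2-leaf (paddy) or 1–4-leaf, 2–18 cm (postemergence); greenhouse 13–15 d; visual score vs control, 0 none to 100 complete control; dash = not tested.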

large crabgrass = test: Test B pre-/postemergence herbicide test; assay type: in vivo, Digitaria sanguinalis; conditions: for Crabgrass, Large plant response rating: postemergence
How it was run: (§2)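 Herbicidal effect was judged by eye on a 0–100 scale after plants stood 13 to 15 days in the greenhouse following pre- or postemergence treatment with surfactant-containing formulations.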

giant foxtail = test: Test B pre-/postemergence herbicide test; assay type: in vivo, Setaria faberi; conditions: for Foxtail, Giant plant response rating: postemergence
How it was run: as §2

ducksalad = test: Test B flooded paddy test; assay type: in vivo, Heteranthera limosa; conditions: 1000 g ai/ha, scale 0 to 100 (0 no effect, 100 complete control)
How it was run: as §1

Surinam grass = test: Test B pre-/postemergence herbicide test; assay type: in vivo, Urochloa decumbens; conditions: for Surinam Grass plant response rating: postemergence
How it was run: as §2

pigweed = test: Test B pre-/postemergence herbicide test; assay type: in vivo, Amaranthus retroflexus; conditions: for Pigweed plant response rating: postemergence
How it was run: as §2

barnyardgrass [2] = test: Test B flooded paddy test; assay type: in vivo, Echinochloa crus-galli; conditions: 1000 g ai/ha, scale 0 to 100 (0 no effect, 100 complete control)
How it was run: as §1

velvetleaf = test: Test B pre-/postemergence herbicide test; assay type: in vivo, Abutilon theophrasti; conditions: for Velvetleaf plant response rating: postemergence
How it was run: as §2

lambsquarters = test: Test B pre-/postemergence herbicide test; assay type: in vivo, Chenopodium album; conditions: for Lambsquarters plant response rating: postemergence
How it was run: as §2

blackgrass = test: Test B postemergence herbicide test; assay type: in vivo, Alopecurus myosuroides; conditions: scale 0 (no effect) to 100 (complete control); for Blackgrass plant response rating: postemergence, visual rating
How it was run: as §1

[3] = test system: small flower umbrella sedge; test: Test B flooded paddy test; assay type: in vivo, Cyperus difformis; conditions: 1000 g ai/ha, scale 0 to 100 (0 no effect, 100 complete control)
How it was run: as §1

morningglory = test: Test B pre-/postemergence herbicide test; assay type: in vivo, Ipomoea coccinea; conditions: for Morningglory plant response rating: postemergence
How it was run: (§3)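 Visual rating, 0 (no effect) to 100 (complete control), versus untreated controls after 13–15 d in greenhouse. Pre- and postemergence applications (postemergence plants 2–18 cm, 1–4 leaves); flooded paddy arm at 2-leaf stage. Compounds in non-phytotoxic solvent plus surfactant.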

barnyardgrass [4] = test: Test B pre-/postemergence herbicide test; assay type: in vivo, Echinochloa crus-galli; conditions: for Barnyardgrass plant response rating: postemergence
How it was run: as §3

corn = test: Test B pre-/postemergence herbicide test; assay type: in vivo, Zea mays; conditions: for Corn plant response rating: postemergence
How it was run: as §2

rice [5] = test: Test B pre-/postemergence herbicide test; assay type: in vivo, Oryza sativa; conditions: preemergence
How it was run: as §2

cocklebur = test: Test B pre-/postemergence herbicide test; assay type: in vivo, Xanthium strumarium; conditions: for Cocklebur plant response rating: postemergence
How it was run: as §3

wheat = test: Test B postemergence herbicide test; assay type: in vivo, Triticum aestivum; set-up: key to Wheat plant response rating: 0 = no effect, 100 = complete control; conditions: for Wheat plant response rating: postemergence
How it was run: as §1

[6] = 125 g ai/ha, visual rating, scale 0 (no effect) to 100 (complete control)
[7] = 500 g ai/ha, scale 0 to 100, 0 is no effect, 100 is complete control
[8] = 125 g ai/ha, 0 = no effect, 100 = complete control, preemergence
[9] = 500 g ai/ha, visual rating, 0 = no effect, 100 = complete control, preemergence
[10] = 500 g ai/ha, visual rating, scale 0 (no effect) to 100 (complete control)
[11] = Postemergence, 500 g ai/ha, visual rating after 13 to 15 days, scale 0 (no effect) to 100 (complete control)
[12] = 500 g ai/ha, visual rating 0-100, 0 no effect, 100 complete control, preemergence
[13] = preemergence, 125 g ai/ha, 0 to 100 scale, 0 is no effect, 100 is complete control

## CCn1nc(C(C)(C)C)cc1C(=O)Nc1nc(C(=O)OC)ccc1OC [Compound 265]
Wild oat; [6]
  Oat, Wild plant response rating: 0
Wild oat; [7]
  Oat, Wild plant response rating: 10
Rice [1]
  Rice plant response rating: 0
Large crabgrass; [6]
  Crabgrass, Large plant response rating: 0
Large crabgrass; [7]
  Crabgrass, Large plant response rating: 0
Giant foxtail; [8]
  Foxtail, Giant plant response rating (0 to 100 scale): 0
Giant foxtail; [9]
  Plant response rating, Foxtail, Giant: 50
Giant foxtail; [6]
  Foxtail, Giant plant response rating: 0
Giant foxtail; [7]
  Foxtail, Giant plant response rating: 0
ducksalad
  Ducksalad plant response rating: 0
Surinam grass; [8]
  Surinam Grass plant response rating (0 to 100 scale): 0
Surinam grass; [9]
  Plant response rating, Surinam Grass: 40
Surinam grass; [6]
  Surinam Grass plant response rating: 0
Surinam grass; [7]
  Surinam Grass plant response rating: 0
pigweed; [8]
  Pigweed plant response rating (0 to 100 scale): 0
pigweed; [9]
  Plant response rating, Pigweed: 0
pigweed; [6]
  Pigweed plant response rating: 0
pigweed; [7]
  Pigweed plant response rating: 20
Barnyardgrass [2]
  Barnyardgrass plant response rating: 0
velvetleaf; [8]
  Velvetleaf plant response rating (0 to 100 scale): 0
velvetleaf; [9]
  Plant response rating, Velvetleaf: 10
velvetleaf; [6]
  Velvetleaf plant response rating: 0
velvetleaf; [7]
  Velvetleaf plant response rating: 10
lambsquarters; [9]
  Plant response rating, Lambsquarters: 0
lambsquarters; [6]
  Lambsquarters plant response rating: 0
lambsquarters; [7]
  Lambsquarters plant response rating: 0
blackgrass; 125 g ai/ha
  Blackgrass plant response rating: 0
blackgrass; 500 g ai/ha
  Blackgrass plant response rating: 10
[3]
  Sedge, Umbrella plant response rating: 0
morningglory; [8]
  Morningglory plant response rating (0 to 100 scale): 0
morningglory; [9]
  Plant response rating, Morningglory: 0
morningglory; [6]
  Morningglory plant response rating: 0
morningglory; [7]
  Morningglory plant response rating: 10
Barnyardgrass [4]; [8]
  Barnyardgrass plant response rating (0 to 100 scale): 0
Barnyardgrass [4]; [9]
  Plant response rating, Barnyardgrass: 0
Barnyardgrass [4]; [6]
  Barnyardgrass plant response rating: 0
Barnyardgrass [4]; [10]
  Barnyardgrass plant response rating: 0
corn; [8]
  Corn plant response rating (0 to 100 scale): 0
corn; [9]
  Plant response rating, Corn: 0
corn; [6]
  Corn plant response rating: 0
corn; [7]
  Corn plant response rating: 10
Rice [5]; 125 g ai/ha, 0 = no effect, 100 = complete control
  Rice plant response rating (0 to 100 scale): 0
Rice [5]; 500 g ai/ha, visual rating, 0 = no effect, 100 = complete control
  Plant response rating, Rice: 0
cocklebur; [8]
  Cocklebur plant response rating (0 to 100 scale): 0
cocklebur; [9]
  Plant response rating, Cocklebur: 0
cocklebur; [6]
  Cocklebur plant response rating: 0
cocklebur; [10]
  Cocklebur plant response rating: 0
wheat; [6]
  Wheat plant response rating: 0
wheat; [7]
  Wheat plant response rating: 10

## CCn1nc(C(C)(C)C)cc1C(=O)Nc1ccc(C)c(C(=O)OC(C)C)c1 [Compound 100]
Wild oat; [11]
  Plant response rating, Oat, Wild: 40
Wild oat; [6]
  Oat, Wild plant response rating: 20
Rice [1]; visual rating, 13 to 15 days
  Rice plant response rating: 0
Large crabgrass; [12]
  Plant response rating, Crabgrass, Large: 0
Large crabgrass; [11]
  Plant response rating, Crabgrass, Large: 0
Large crabgrass; [6]
  Crabgrass, Large plant response rating: 0
Large crabgrass; [13]
  Plant response rating, Crabgrass, Large: 0
Giant foxtail; [12]
  Plant response rating, Foxtail, Giant: 0
Giant foxtail; [11]
  Plant response rating, Foxtail, Giant: 0
Giant foxtail; [6]
  Foxtail, Giant plant response rating: 0
Giant foxtail; [13]
  Plant response rating, Foxtail, Giant: 0
ducksalad; visual rating, 13 to 15 days
  Ducksalad plant response rating: 0
Surinam grass; [12]
  Plant response rating, Surinam Grass: 0
Surinam grass; [11]
  Plant response rating, Surinam Grass: 20
Surinam grass; [6]
  Surinam Grass plant response rating: 0
Surinam grass; [13]
  Plant response rating, Surinam Grass: 0
pigweed; [12]
  Plant response rating, Pigweed: 0
pigweed; [11]
  Plant response rating, Pigweed: 60
pigweed; [6]
  Pigweed plant response rating: 0
pigweed; [13]
  Plant response rating, Pigweed: 0
Barnyardgrass [2]; visual rating, 13 to 15 days
  Barnyardgrass plant response rating: 0
velvetleaf; [12]
  Plant response rating, Velvetleaf: 0
velvetleaf; [11]
  Plant response rating, Velvetleaf: 0
velvetleaf; [6]
  Velvetleaf plant response rating: 0
velvetleaf; [13]
  Plant response rating, Velvetleaf: 0
lambsquarters; [12]
  Plant response rating, Lambsquarters: 0
lambsquarters; [11]
  Plant response rating, Lambsquarters: 50
lambsquarters; [6]
  Lambsquarters plant response rating: 0
lambsquarters; [13]
  Plant response rating, Lambsquarters: 0
blackgrass; Postemergence, 500 g ai/ha, visual rating after 13 to 15 days
  Plant response rating, Blackgrass: 30
blackgrass; 125 g ai/ha
  Blackgrass plant response rating: 10
[3]; visual rating, 13 to 15 days
  Sedge, Umbrella plant response rating: 0
morningglory; [12]
  Plant response rating, Morningglory: 0
morningglory; [11]
  Plant response rating, Morningglory: 0
morningglory; [6]
  Morningglory plant response rating: 0
morningglory; [13]
  Plant response rating, Morningglory: 0
Barnyardgrass [4]; [12]
  Plant response rating, Barnyardgrass: 0
Barnyardgrass [4]; [11]
  Plant response rating, Barnyardgrass: 0
Barnyardgrass [4]; [6]
  Barnyardgrass plant response rating: 0
Barnyardgrass [4]; [13]
  Plant response rating, Barnyardgrass: 0
corn; [12]
  Plant response rating, Corn: 0
corn; [11]
  Plant response rating, Corn: 0
corn; [6]
  Corn plant response rating: 0
corn; [13]
  Plant response rating, Corn: 0
Rice [5]; 500 g ai/ha, visual rating 0-100, 0 no effect, 100 complete control
  Plant response rating, Rice: 0
Rice [5]; 125 g ai/ha, 0 to 100 scale, 0 is no effect, 100 is complete control
  Plant response rating, Rice: 0
cocklebur; [12]
  Plant response rating, Cocklebur: 0
cocklebur; [11]
  Plant response rating, Cocklebur: 0
cocklebur; [6]
  Cocklebur plant response rating: 0
cocklebur; [13]
  Plant response rating, Cocklebur: 0
wheat; [11]
  Plant response rating, Wheat: 10
wheat; [6]
  Wheat plant response rating: 10
